Tests used:
Type in all cases: functional, cell-based
[1] = system: SNB-19; assay: Cytotoxicity against human SNB19 cells after 2 days by XTT assay; details: SNB-19, 48 h
[2] = Cytotoxicity against human LOX cells after 2 days by XTT assay; details: 48 h
[3] = system: OVCAR-3; assay: Cytotoxicity against human OVCAR3 cells after 2 days by XTT assay; details: OVCAR-3, 48 h
[4] = system: COLO 205; assay: Cytotoxicity against human COLO205 cells after 2 days by XTT assay; details: COLO 205, 48 h
[5] = system: MOLT-4; assay: Cytotoxicity against human MOLT4 cells after 2 days by XTT assay; details: MOLT-4, 48 h

O=C1NCCc2cc(Br)c(O)c(c2)Oc2cc(O)c(cc2Br)CCNC(=O)/C(=N/O)Cc2c(O)cc(Br)c(c2Br)Oc2cc(cc(Br)c2O)C/C1=N\O [LITHOTHAMNIN A] showed an IC50 [1] of 7.6 µM, an IC50 [2] of 9.5 µM and an IC50 [3] of 7.6 µM. The IC50 [4] was 19 µM and the IC50 [5] was 19 µM.

From ChEMBL document CHEMBL1799909, “Lithothamnin A, the first bastadin-like metabolite from the red alga Lithothamnion fragilissimum” (J Nat Prod, 2011)
